According to patent publication US20240174618A1, “SUBSTITUTED (2-HETEROARYLOXYPHENYL)SULFONATES, SALTS THEREOF AND THEIR USE AS HERBICIDAL AGENTS” (Bayer Aktiengesellschaft, priority 2021, published 2024):

Assays:
Type in all cases: in vivo
Stellaria media (STEME) [1] = test: A. Herbicidal pre-emergence efficacy, STEME
Text: (§1) Seeds of mono- and dicotyledonous weed plants were placed in plastic pots in sandy loam soil (doubly sown with one species each of mono- or dicotyledonous weed plants per pot) and covered with soil. The compounds of the invention, formulated in the form of wettable powders (WP) or as emulsion concentrates (EC), were then applied onto the surface of the covering soil as aqueous suspension or emulsion with addition of 0.5% additive at a water application rate of 600 liters per hectare (converted). After the treatment, the pots were placed in a greenhouse and kept under good growth conditions for the test plants. After about 3 weeks, the efficacy of the preparations was scored visually in comparison with untreated controls as percentages.
(§2) For example, • 100% efficacy=plants have died, • 0% efficacy=like untreated control plants.
(§3) Tables A1a to A12c below show the effects of selected compounds of the general formula (I) according to table 1 on various harmful plants at an application rate corresponding to 1280 g/ha or less, which were obtained by the experimental procedure mentioned above.

Setaria viridis (SETVI) = test: A. Herbicidal pre-emergence efficacy, SETVI
Text: as §1, §2, §3

Veronica persica (VERPE) [2] = test: B. Herbicidal post-emergence efficacy, VERPE
Experimental: (§4) Seeds of mono- and dicotyledonous weed plants were placed in plastic pots in sandy loam soil (doubly sown with in each case one species of mono- or dicotyledonous weed plants per pot), covered with soil and cultivated in a greenhouse under controlled growth conditions. 2 to 3 weeks after sowing, the test plants were treated at the one-leaf stage. The compounds of the invention, formulated in the form of wettable powders (WP) or as emulsion concentrates (EC), were applied onto the green parts of the plants as aqueous suspension or emulsion with addition of 0.5% additive at a water application rate of 600 liters per hectare (converted). After the test plants had been kept in the greenhouse under optimum growth conditions for about 3 weeks, the activity of the preparations was rated visually in comparison to untreated controls.
(§5) For example, • 100% efficacy=plants have died, • 0% efficacy=like untreated control plants
(§6) Tables B1a to B12c below show the effects of selected inventive compounds of the general formula (I) according to table 1 on various harmful plants at an application rate corresponding to 1280 g/ha or less, which were obtained by the experimental procedure mentioned above.

[3] = test system: Echinochloa crus-galli (ECHCG); test: A. Herbicidal pre-emergence efficacy, ECHCG; settings: 1280 g/ha; scored visually after about 3 weeks vs untreated controls
Text: as §1, §2, §3

[4] = test system: Amaranthus retroflexus (AMARE); test: A. Herbicidal pre-emergence efficacy, AMARE
Text: as §1, §2, §3

Poa annua (POAAN) [5] = test: A. Herbicidal pre-emergence efficacy, POAAN
Text: as §1, §2, §3

[6] = test system: Echinochloa crus-galli (ECHCG); test: B. Herbicidal post-emergence efficacy, ECHCG; settings: 1280 g/ha, rated visually after about 3 weeks
Experimental: as §4, §5, §6

[7] = test system: Abutilon theophrasti (ABUTH); test: A. Herbicidal pre-emergence efficacy, ABUTH; settings: 1280 g/ha; scored visually after about 3 weeks vs untreated controls
Text: as §1, §2, §3

[8] = test system: Abutilon theophrasti (ABUTH); test: B. Herbicidal post-emergence efficacy, ABUTH; settings: rated visually after about 3 weeks
Experimental: as §4, §5, §6

Veronica persica (VERPE) [9] = test: A. Herbicidal pre-emergence efficacy, VERPE
Text: as §1, §2, §3

[10] = test system: Digitaria sanguinalis (DIGSA); test: B. Herbicidal post-emergence efficacy, DIGSA; settings: 1280 g/ha, rated visually after about 3 weeks
Experimental: as §4, §5, §6

Stellaria media (STEME) [11] = test: B. Herbicidal post-emergence efficacy, STEME
Experimental: as §4, §5, §6

[12] = test system: Digitaria sanguinalis (DIGSA); test: A. Herbicidal pre-emergence efficacy, DIGSA; settings: scored visually after about 3 weeks vs untreated controls
Text: as §1, §2, §3

Kochia scoparia (KCHSC) [13] = test: A. Herbicidal pre-emergence efficacy, KCHSC; settings: pre-emergence
Text: as §1, §2, §3

[14] = test system: Amaranthus retroflexus (AMARE); test: B. Herbicidal post-emergence efficacy, AMARE
Experimental: as §4, §5, §6

Kochia scoparia (KCHSC) [15] = test: B. Herbicidal post-emergence efficacy, KCHSC; settings: for Post-emergence efficacy against KCHSC in %: rated visually after about 3 weeks
Experimental: as §4, §5, §6

Poa annua (POAAN) [16] = test: B. Herbicidal post-emergence efficacy, POAAN
Experimental: as §4, §5, §6

## O=S(=O)(CC1CC(F)(F)C1)Oc1c(Br)cccc1Oc1ncc(Cl)cn1 [Example I-75]
Stellaria media (STEME) [1]; dosage 320 g/ha
  Pre-emergence efficacy against STEME: 100%
Stellaria media (STEME) [1]; dosage 1280 g/ha
  Pre-emergence efficacy against STEME: 100%
Setaria viridis (SETVI); dosage 320 g/ha
  Pre-emergence efficacy against SETVI: 90%
Setaria viridis (SETVI); dosage 1280 g/ha
  Pre-emergence efficacy against SETVI: 100%
Veronica persica (VERPE) [2]; 80 g/ha
  Post-emergence efficacy against VERPE: 100%
Veronica persica (VERPE) [2]; 320 g/ha
  Post-emergence efficacy against VERPE: 100%
Veronica persica (VERPE) [2]; 1280 g/ha
  Post-emergence efficacy against VERPE: 100%
[3]
  Pre-emergence efficacy against ECHCG: 100%
[4]; 80 g/ha
  Pre-emergence efficacy against AMARE in %: 90%
[4]; 320 g/ha
  Pre-emergence efficacy against AMARE in %: 90%
[4]; 1280 g/ha
  Pre-emergence efficacy against AMARE in %: 100%
Poa annua (POAAN) [5]; dosage 320 g/ha
  Pre-emergence efficacy against POAAN: 100%
Poa annua (POAAN) [5]; dosage 1280 g/ha
  Pre-emergence efficacy against POAAN: 100%
[6]
  Post-emergence efficacy against ECHCG in %: 90%
[7]
  Pre-emergence efficacy against ABUTH: 100%
[8]; 80 g/ha
  Post-emergence efficacy against ABUTH in %: 90%
[8]; 320 g/ha
  Post-emergence efficacy against ABUTH in %: 90%
[8]; 1280 g/ha
  Post-emergence efficacy against ABUTH in %: 100%
Veronica persica (VERPE) [9]; 320 g/ha
  Pre-emergence efficacy against VERPE in %: 90%
Veronica persica (VERPE) [9]; 1280 g/ha
  Pre-emergence efficacy against VERPE in %: 100%
[10]
  Post-emergence efficacy against DIGSA in %: 90%
Stellaria media (STEME) [11]; 320 g/ha
  Post-emergence efficacy against STEME: 100%
Stellaria media (STEME) [11]; 1280 g/ha
  Post-emergence efficacy against STEME: 100%
[12]; 320 g/ha
  Pre-emergence efficacy against DIGSA: 90%
[12]; 1280 g/ha
  Pre-emergence efficacy against DIGSA: 100%
Kochia scoparia (KCHSC) [13]; dosage 320 g/ha
  Pre-emergence efficacy against KCHSC: 90%
Kochia scoparia (KCHSC) [13]; dosage 1280 g/ha
  Pre-emergence efficacy against KCHSC: 100%
[14]; 80 g/ha
  Post-emergence efficacy against AMARE: 100%
[14]; 320 g/ha
  Post-emergence efficacy against AMARE: 100%
[14]; 1280 g/ha
  Post-emergence efficacy against AMARE: 100%
Kochia scoparia (KCHSC) [15]; 80 g/ha
  Post-emergence efficacy against KCHSC in %: 90%
Kochia scoparia (KCHSC) [15]; 320 g/ha
  Post-emergence efficacy against KCHSC in %: 100%
Kochia scoparia (KCHSC) [15]; 1280 g/ha
  Post-emergence efficacy against KCHSC: 100%
Poa annua (POAAN) [16]; 320 g/ha
  Post-emergence efficacy against POAAN: 90%
Poa annua (POAAN) [16]; 1280 g/ha
  Post-emergence efficacy against POAAN: 90%
